Reference: patent publication US20080200403A1, “9A-Carbamoyl and Thiocarbamoyl Azalides with Anti-Inflammatory Activity” (GLAXOSMITHKLINE, priority 2005, published 2008)
Read-outs that look alike come from different tables or passages of the source.

Experiments:
human granulocytes = experiment: Oxidative burst inhibition assay on granulocytes (luminol); format: cell-based; conditions: Homo sapiens; for inhibition at 12.5 µM: compound 12.5 μM; for inhibition at 50 µM: compound 50 μM
Description: (§1) Granulocytes were obtained from heparinized whole blood using density gradient centrifugation. Erythrocytes were sedimented on 3% dextran T-500 (Amersham Pharmacia Biotech AB, Uppsala, Sweden). Leukocytes were centrifuged on Ficoll (Amersham Pharmacia Biotech AB, Uppsala, Sweden) for 35 min at 600 g at 20° C. The pellet of granulocytes was cleared from remaining erythrocytes by a brief hypotonic lysis.
The effect of compounds on oxidative burst was investigated in vitro with oxidative burst assay in human granulocytes, isolated as described above. Assay was done in 96 well plate. Blood was obtained from healthy volunteers (Transfusion Center, Croatia) and human granulocytes were isolated by dextran sedimentation and ficoll extraction method, as described above. In each well 50000 isolated granulocytes were suspended in 100 μL of DMEM. Final concentrations of the tested compounds were 50 and 12.5 μM. Than, 50 μL of luminol (c=0.25 mg/mL) was added. Luminol as a detector of oxidative burst react with superoxide and light is produced as one of the reaction products. Subsequently, 50 μL of stimuli, phorbol-12-myristate acetate (PMA) (c=33 ng/mL) or Zymosan (c=120 μg/mL), were added.

Hep G2 = experiment: MTT cytotoxicity assay on Hep G2 cell line; format: cell-based
Description: (§2) To determine whether the anti-inflammatory activity of the test compounds was due to observed inhibition of cytokine production and inhibition of proliferation in vitro, and was not a consequence of cellular cytotoxicity, measurement of succinate dehydrogenase activity in living cells was performed. Cells were cultured for 24 h in RPMI medium as described above at 37° C. in the presence of the test compounds at concentrations of 50 μM and 12.5 μM. MTT [3-(4,5-dimethylthiazole-2-yl)-2,5-diphenyl tetrazolium bromide] (Promega, USA), a detection reagent, was then added and the cultures were incubated for 0.5-2 h. The amount of MTT-Formazan produced was determined using a spectrophotometer at 490 nm (Mosmann, J. Imnunol. Methods, 1983, 65: 55-63). Percentage of viable cells was calculated using the following formula:
(§3) % viable cells=([…]OD490 treated cells/OD490 nontreated cells)×100

TNF-α = experiment: Lipopolysaccharide induced TNF-α production in Balb/cJ mice; format: in vivo; conditions: LPS stimulated Balb/cJ mice, 10 mg/kg b.w. intraperitoneally, plasma 90 min after challenge
Description: Male Balb/cJ mice (Iffa Credo, France), 18 animals weighing 25-33 g were randomly grouped (7 animals were treated with the test compounds, 7 were in positive control and 4 in negative control). Substances, as well as vehiculum [0.125% carboxymethyl-cellulose (Sigma, USA)], were administered intraperitoneally. Substances were administered in the dose of 10 mg/kg b.w. Administered volume was 10 mL/kg b.w. Thirty minutes later, lipopolysaccharide (LPS) (Sigma, USA) solution in sterile saline at concentration and volume of 25 μg/0.2 mL of sterile saline/mouse was intraperitoneally administered to each animal except those in negative control. Ninety minutes after the challenge all animals were bled to death by puncturing a carotis communis. Plasma concentration of TNF-α was determined by sandwich ELISA, using capture and detection antibodies (R&D, USA) according to manufacturer's recommendations. Results are presented in the following table as % of inhibition of TNF-α production in comparison to positive control (challenged but not treated animals).

IL-2 = experiment: Inhibition of IL-2 production by stimulated human PBMC in vitro; format: cell-based; conditions: PHA stimulated, 3 days
Description: (§4) Heparinized peripheral blood was obtained from healthy donors, and peripheral blood mononuclear cells (PBMC) were isolated by Histopaque 1077 (Sigma, USA) density centrifugation on 400 g for 30 minutes. Collected PBMC were centrifuged in plasma on 400 g/10 min, resuspended and washed in RPMI 1640 (Institute of Immunology, Croatia) by centrifugation.
(§5) Peripheral blood mononuclear cells (PBMC), isolated as described above, were seeded in a 48-well plate at a concentration of 1×10^6 cells per well in the RPMI culture medium described above. Cells were stimulated with 10 μg/mL phytohaemagglutinin (PHA) (Sigma, USA) and incubated at 37° C., 5% CO2 in 90% humidity with tested compounds (10 and 50 μM) for 3 days. Cytokine concentrations were determined in supernatants by sandwich ELISA, using capture and detection antibodies (R&D, USA) according to the manufacturer's recommendations.
(§6) Inhibition (as percentage) was calculated using the following formula: % inhibition=(1−concentration of cytokines in sample/concentration of cytokines in positive control)×100. The positive control refers to stimulated samples, not treated with substances.

A549 = experiment: MTT cytotoxicity assay on A549 cell line; format: cell-based
Description: as §2, §3

granulocytes = experiment: Inhibition of degranulation of granulocytes (elastase release); format: cell-based, human; conditions: for inhibition at 50 µM: Homo sapiens, read-out: Percentage of inhibition of degranulation of granulocytes
Description: as §1
1×10^6 granulocytes, isolated as described above, were resuspended in RPMI-1640 medium (Institute of Immunology, Croatia), and were incubated with 10 or 50 μM of test compound together with cytochalasine B (5 μg/mL) for 2 h at 37° C. Degranulation then was induced by the addition of 0.1 μM fMLP (Sigma, USA) or 0.5 μM A23187 (Calbiochem, USA). The activity of free neutrophil elastase was determined with a chromogenic substrate specific for human neutrophil elastase, such as n-methoxysuccinyl-1-alanyl-1-alanyl-1-prolyl-lvalyl-p-niytoanlide (Sigma Chemical Company, St Louis, Mo., USA) Elastase activity, as a marker of primary granules, was assessed in supernatant using a spectrophotometer at an absorbance of 405 nm. Results are expressed as the percent of inhibition of degranulation in unstimulated cells, and in stimulated cells treated with fMLP or A23187.

IL-5 = experiment: Inhibition of IL-5 production by stimulated human PBMC in vitro; format: cell-based; conditions: PHA stimulated, 3 days
Description: as §4, §5, §6

[1] = PMA stimulated granulocytes, read-out: % inhibition of Oxidative burst PMA
[2] = Zymosan stimulated granulocytes, read-out: % inhibition of Oxidative burst Zymosan
[3] = A23187 0.5 μM stimulated, compound 10 μM
[4] = A23187 0.5 μM stimulated, compound 50 μM
[5] = fMLP 0.1 μM stimulated, compound 10 μM
[6] = fMLP 0.1 μM stimulated, compound 50 μM

Row | SMILES | inhibition at 12.5 µM (human granulocytes; [1]) | inhibition at 50 µM (human granulocytes; [1]) | inhibition at 12.5 µM (human granulocytes; [2]) | inhibition at 50 µM (human granulocytes; [2]) | TNF-α (% inhibition) (TNF-α) | Percentage of inhibition of IL-2 production (IL-2; compound 10 μM) | Percentage of inhibition of IL-2 production (IL-2; compound 50 μM) | Percentage of inhibition of degranulation of granulocytes (granulocytes; [3]) | Percentage of inhibition of degranulation of granulocytes (granulocytes; [4]) | Percentage of inhibition of degranulation of granulocytes (granulocytes; [5]) | Percentage of inhibition of degranulation of granulocytes (granulocytes; [6]) | Percentage of inhibition of IL-5 production (IL-5; compound 10 μM) | Percentage of inhibition of IL-5 production (IL-5; compound 50 μM) | Percentage of viable cells after treatment (Hep G2; human, 24 h, 12.5 μM) | Percentage of viable cells after treatment (Hep G2; human, 24 h, 50 μM) | Percentage of viable cells after treatment (A549; human, 24 h, 12.5 μM) | Percentage of viable cells after treatment (A549; human, 24 h, 50 μM) | other results
1 | CC[C@H]1OC(=O)[C@H](C)[C@@H](O[C@H]2C[C@@](C)(OC)[C@@H](O)[C@H](C)O2)[C@H](C)[C@@H](O[C@@H]2O[C@H](C)C[C@H](N(C)C)[C@H]2O)[C@](C)(O)C[C@@H](C)CN(C(=S)Nc2cccc(C(F)(F)F)c2)[C@H](C)[C@@H](O)[C@]1(C)O [Compound 4] | 16% | 85% | 0% | 100% |  |  |  |  |  |  |  |  |  |  |  |  |  | 
2 | CCC1OC(=O)C(C)C(OC2CC(C)(OC)C(O)C(C)O2)C(C)C(OC2OC(C)CC(N(C)C)C2O)C(C)(O)CC(C)CN(C(=S)Nc2cccc(F)c2)C(C)C(O)C1(C)O (stereo not shown) [Compound 3] |  |  |  |  | 29% | 86% | 98% | 2% | 75% | 25% | 33% | 80% | 78% |  |  |  |  | Percentage of viable cells after treatment (Hep G2; Hep G2, 24 h, compound 12.5 μM): 100%; Percentage of viable cells after treatment (Hep G2; Hep G2, 24 h, compound 50 μM): >85%; Percentage of viable cells after treatment (A549; A549, 24 h, compound 12.5 μM): 100%; Percentage of viable cells after treatment (A549; A549, 24 h, compound 50 μM): >90%
3 | CC[C@H]1OC(=O)[C@H](C)[C@@H](O[C@H]2C[C@@](C)(OC)[C@@H](O)[C@H](C)O2)[C@H](C)[C@@H](O[C@@H]2O[C@H](C)C[C@H](N(C)C)[C@H]2O)[C@](C)(O)C[C@@H](C)CN(C(=S)Nc2ccccc2F)[C@H](C)[C@@H](O)[C@]1(C)O [Compound 5] |  |  |  |  | 50% |  |  |  |  |  |  |  |  | 100% | 100% | 100% | 100% | 
4 | CC[C@H]1OC(=O)[C@H](C)[C@@H](O[C@H]2C[C@@](C)(OC)[C@@H](O)[C@H](C)O2)[C@H](C)[C@@H](O[C@@H]2O[C@H](C)C[C@H](N(C)C)[C@H]2O)[C@](C)(OC)C[C@@H](C)C(=O)[C@H](C)[C@@H](O)[C@]1(C)O [Clarithromycin, clarithromycin, reference compound] | 0% | 3% | 4% | 19% | 63% |  |  |  |  |  |  |  |  | 100% | 100% | 100% | 100% | inhibition at 10 µM (IL-2; Homo sapiens, 72 h, compound 10 μM, read-out: Percentage of inhibition of IL-2 production): 0%; inhibition at 50 µM (IL-2; Homo sapiens, 72 h, compound 50 μM, read-out: Percentage of inhibition of IL-2 production): 3%; inhibition at 10 µM (IL-5; Homo sapiens, 72 h, compound 10 μM, read-out: Percentage of inhibition of IL-5 production): 13%; inhibition at 50 µM (IL-5; Homo sapiens, 72 h, compound 50 μM, read-out: Percentage of inhibition of IL-5 production): 47%
5 | CC[C@H]1OC(=O)[C@H](C)[C@@H](O[C@H]2C[C@@](C)(OC)[C@@H](O)[C@H](C)O2)[C@H](C)[C@@H](O[C@@H]2O[C@H](C)C[C@H](N(C)C)[C@H]2O)[C@](C)(O)C[C@@H](C)CN(C)[C@H](C)[C@@H](O)[C@]1(C)O [Azithromycin, azithromycin, reference compound] | 0% | 20% | 0% | 16% | 54% |  |  |  |  |  |  |  |  | 100% | >95% | 100% | 100% | inhibition at 50 µM (granulocytes; [4]): 16%; inhibition at 50 µM (granulocytes; [6]): 36%
6 | CCC1OC(=O)C(C)C(O)C(C)C(OC2OC(C)CC(N(C)C)C2O)C(C)(O)CC(C)CN(C(=S)NCc2ccccc2)C(C)C(O)C1(C)O (stereo not shown) [Compound 1] |  |  |  |  | 31% | 61% | 95% | 20% | 27% | 37% | 72% | 14% | 73% |  |  |  |  | 
